Reference: patent publication EP0604248A1, “Use of 5-methoxypsoralen for the treatment of AIDS” (Goupil, Jean-Jacques, priority 1992, dated 1994)

How the values were obtained:
VIH-1 [1] = test: Residual infectivity of treated HIV-1 on primary cultures of activated human lymphocytes (reverse transcriptase activity in supernatants, 28 days); format: cell-based; details: for log reduction at 10 µg/mL: Human immunodeficiency virus 1, Lymphocyte, light or radiation study
Description: (§1) Cette étude a été réalisée en 2 étapes : • traitements du virus VIH-1 (ou HIV-1) par le 5-méthoxypsoralène (5-MOP) et les UVA. • étude de l'infectivité résiduelle des échantillons traités à l'aide des tests sur cellules MT4 et sur lymphocytes activés.
(§2) Le virus a été traité par 10 µg/ml de 5-MOP, puis exposé aux UVA (1 à 2 Joules/cm²) de la façon suivante: • 4 ml de virus VIH-1 ont été traités avec 40 µl de 5-MOP à 1 mg/ml puis exposés aux UVA (intensité de 1,5 mW/cm²) pendant 17 minutes (échantillon PUV 10), • l'irradiation aux UVA a été faite avec la lampe PUVA 200 WALDMANN en déposant les flacons contenant le virus sur un lit de glace, afin d'éviter au maximum l'échauffement.
(§3) Les témoins pour cette expérience ont été les suivants : • le virus VIH-1 utilisé, non traité (échantillon PUV 1), • 4 ml du virus utilisé, traité uniquement par 40 µl de DMSO, afin de vérifier une éventuelle toxicité due au DMSO (échantillon PUV 2), • le virus utilisé, traité avec 10 µg/ml de 5-MOP, mais sans irradiation UVA (échantillon PUV 6), • le virus utilisé, traité uniquement par irradiation UVA pendant 17 minutes à 1,5 mW/cm² (échantillon PUV 5), • le virus utilisé, sans traitement, gardé à la température de l'expérience, pendant toute la durée du traitement, afin de vérifier la perte d'infectivité due aux conditions de la manipulation (échantillon PUV 9).
• a - Sur cellules MT4 : Des dilutions successives de chaque échantillon ont été testées en duplicata. 100 µl de chaque dilution ont été mis en contact 1 heure à 37°C avec 3.10⁵ cellules MT4 par puits de plaque COSTAR 24 puits. Les cellules ont été centrifugées afin d'éliminer le produit éventuellement toxique, puis resuspendues dans 1 ml du milieu de culture. Aux jours 3 et 6, 750 µl de surnageant ont été ôtés, remplacés par du milieu de culture frais et la concentration cellulaire ajustée à 3.10⁵ cellules par millilitre. Au jour 10, l'effet cytopathogène et la mortalité cellulaire ont été évalués par observation au microscope après coloration au bleu Trypan. Des dosages de l'activité transcriptase inverse ont été réalisés à partir des surnageants de culture conservés à chaque passage (jours 3, 6 et 10). • b - Sur lymphocytes humains activés : Un culot de 3.10⁶ lymphocytes préalablement stimulés à la PHA a été incubé avec 1 ml de chaque échantillon (de 10⁻¹ à 10⁻⁵ pour chaque échantillon, sauf pour l'échantillon PUV10 testé également non dilué) pendant 1 heure à 37°C. Puis les cellules ont été centrifugées et resuspendues à 10⁶ cellules par millilitre dans du milieu complet. Tous les 3 ou 4 jours, les cellules ont été comptées, réensemencées à 10⁶ cellules/ml et les surnageants conservés à -80°C. […]

VIH-1 [2] = test: Residual infectivity of treated HIV-1 on MT4 cells (cytopathic effect, p25 antigen, reverse transcriptase activity); format: cell-based; details: Human immunodeficiency virus 1, light or radiation study
Description: as §1, §2
as §3, with “9). […]” for “9).”

## COc1c2ccoc2cc2oc(=O)ccc12 [5-MOP, 5-méthoxypsoralène]
VIH-1 [1]; 5-MOP seul, no UVA (control treatment), overall conclusion
  réduction du pouvoir infectieux du virus: sans effet
VIH-1 [1]; 5-MOP à 10 µg/ml et UVA (sample PUV10), activated human lymphocytes (PBL)
  titre: 100 UI/ml
VIH-1 [1]; 5-MOP à 10 µg/ml et UVA (sample PUV10, tested undiluted), activated human lymphocytes (PBL), read-out: inactivation virale
  log reduction at 10 µg/mL: 3
VIH-1 [1]; 5-MOP à 10 µg/ml et UVA, overall conclusion, read-out: réduction du pouvoir infectieux du virus
  log reduction at 10 µg/mL: ~3
VIH-1 [2]; 5-MOP seul à 10 µg/ml, no UVA (sample PUV6), versus control PUV9, read-out: perte d'infectivité
  log reduction at 10 µg/mL: 0.5
VIH-1 [2]; 5-MOP à 10 µg/ml et UVA (sample PUV10), versus control PUV9, read-out: réduction du titre infectieux
  log reduction at 10 µg/mL: 2.5
